Key:
Male C57BL6 mice [1] = test: Aβ42 and mGluR5 NAM administration study; assay type: in vivo; settings: Basimglurant 1 mg/kg oral gavage or vehicle plus Aβ42 i.p. once/day; for plasma Aβ42 compared with the ScrAβ42+Veh group: FIG. 9A; for Peak E wave compared with the ScrAβ42+Veh group: FIG. 9B
Protocol: Basimglurant (MedChemExpress) was resuspended in 100% DMSO before being diluted in a hydroxypropyl cellulose solution to give a final solution containing 0.25 mg/mL Basimglurant in 10% hydroxypropyl cellulose and 5% DMSO. A vehicle solution containing 10% hydroxypropyl cellulose and 5% DMSO was also made. Aliquots of both drug and vehicle were stored at −80° C. until required. Male C57BL6 mice were obtained from the Animal Resource Centre (Perth, Wash.) at 4 weeks of age and housed with 4 mice per cage on a 12 hr light/dark cycle at a temperature of 22° C. and a constant humidity with a normal rodent diet. At 12 weeks of age, mice were grouped according to body mass and composition, determined by EchoMRI. […] After 4 weeks of drug and peptide administration, cardiac function was assessed by echocardiography as follows. Mice were anaesthetised with inhalation of 1.5% isoflurane anaesthesia and echocardiography was performed using the Phillips HD15 diagnostic ultrasound system with a 15 MHz linear-array transducer by an experienced veterinarian. The velocity of blood flow through the mitral valve was analysed using Doppler mode imaging. […] Doppler imaging was also utilised to measure the velocity of blood flow through the aortic valve. The measurements were then used to calculate the ejection time (LVET), peak aortic flow and heart rate. M-mode imaging of the left ventricle was used to measure the thickness of the inter-ventricular septum (IVS), left ventricular internal diameter (LVID) and left ventricular posterior wall (LVPW) in both diastole (d) and end-systole (s) as well as systolic measures such as ejection fraction and fractional shortening. An estimation of LV mass was calculated from the m-mode imaging by using the formula (1.05[LVIDd+LVPWd+IVSd]^3−[LVIDd]^3) by Troy et al. (1972). The myocardial performance index (MPI), a global index of both diastolic and systolic cardiac function, was calculated using the formula ([IVCT+IVRT]/LVET), by Tei et al. (1995). Mice were humanely killed by cervical dislocation 1 week later. Blood was obtained immediately following by cardiac puncture and the heart, and other tissues were immediately removed. Hearts were washed in ice cold PBS and weighed prior to being snap frozen in liquid nitrogen.

[2] = test system: mice on HFD (established obesity); test: Basimglurant-High Fat Diet (HFD) treatment study; assay type: in vivo; settings: obese mice
Protocol: Basimglurant-High Fat Diet (HFD) treatment study: At 12 weeks of age, mice (n=30) were placed on a HFD with 43% of calories from fat (23.5% by weight; SF04-001 High Fat Rodent Diet Based on D12451, Specialty Feeds, Glen Forrest, Wash.). After 13 weeks of the diet period, echocardiography was performed on all mice to obtain pre-drug treatment measures of cardiac function. Mice were allocated to treatment groups so that measures of cardiac function and morphology were matched as best as possible. Basimglurant (MedChemExpress) was resuspended in 100% DMSO before being diluted in a hydroxypropyl cellulose solution to give a final solution containing 0.25 mg/mL Basimglurant in 10% hydroxypropyl cellulose and 5% DMSO. A vehicle solution containing 10% hydroxypropyl cellulose and 5% DMSO was also made. Aliquots of both drug and vehicle were stored at −80° C. until required. The HFD/Basimglurant group was administered 1 mg/kg of Basimglurant per day by oral gavage, while the HFD/control group received an equivalent volume of vehicle. Echocardiography was then performed following 4 weeks of the treatment period to obtain post-drug treatment measures of cardiac function. Following 5 weeks of the drug administration, mice were humanely killed via cervical dislocation and blood was immediately obtained via cardiac puncture and stored in a heparinised tube. […]

[3] = test system: Primary mouse neonatal ventricular cardiomyocytes; test: Neonatal ventricular cardiomyocyte experiments, antagonist studies (gene expression); assay type: cell-based; settings: 10 uM, cardiomyocytes exposed to Aβ42, FIG. 6B
Protocol: Total mRNA from the tissues was extracted by homogenizing ˜20-30 milligrams of tissue in 1 ml of Trizol followed by incubation at room temperature (RT) for 5 min. 200 μL of chloroform was added to the homogenate, shaken for 15 seconds and incubated for 1 min at RT before centrifuging at 12,000 g for 10 min at 4° C. for extracting the upper aqueous phase. An equal volume (350 μl for cell lysate/450 μL for tissue) of 70% ethanol was added to cell/tissue samples and they were further purified with RNeasy spin columns (the RNeasy®min i Kit, Qiagen). Complementary DNA (cDNA) was synthesised using the SuperScript™ III transcription system (Invitrogen). cDNA was quantified by OliGreen assay (Quant-iT™ OliGreen® ssDNA Assay Kit; Invitrogen). All primers were designed in-house using the Beacon Primer Designer program software and synthesised by Gene Works (Adelaide, Australia). […] Gene expression levels were quantified using the FastStart Universal SYBR Green Master (ROX; Roche Applied-Science) on the MX3005P™ Multiplex Quantitative PCR (QPCR) system (Stratagene). […]
Neonatal ventricular cardiomyocyte experiments: Primary mouse neonatal ventricular cardiomyocytes were isolated from one day old neonate mice. […] 48 hr after infection, cells were harvested and homogenized in protein lysis buffer, total protein concentration was determined and western blotting was performed, as described above. […]

Male C57BL6 mice [4] = test: Aβ40 administration study; assay type: in vivo; parameters: dose or concentration left out as unconfirmed; settings: i.p. for 5 weeks vs ScrAβ40, FIG. 11A
Protocol: Aβ40 administration study: Lyophilised recombinant Aβ40 (Millipore) and scrambled control peptide (ScrAβ40; Millipore) were resuspended in 1% NH4OH and aliquoted at 200 ng/ml in H2O and stored at −80° C. for no longer than 4 weeks. Male C57BL6 mice were obtained from the Animal Resource Centre (Perth, Wash.) at 4 weeks of age and housed with 4 mice per cage on a 12 hr light/dark cycle at a temperature of 22° C. and a constant humidity with a normal rodent diet. At 12 weeks of age, mice were grouped according to body mass and composition, determined by EchoMRI. […] After 4 weeks of peptide administration, cardiac function was assessed by echocardiography as follows. Mice were anaesthetised with inhalation of 1.5% isoflurane anaesthesia and echocardiography was performed using the Phillips HD15 diagnostic ultrasound system with a 15 MHz linear-array transducer by an experienced veterinarian. The velocity of blood flow through the mitral valve was analysed using Doppler mode imaging. […] Doppler imaging was also utilised to measure the velocity of blood flow through the aortic valve. […] An estimation of LV mass was calculated from the m-mode imaging by using the formula (1.05 [LVIDd+LVPWd+IVSd]^3−[LVIDd]^3) by Troy et al. (1972). […] Plasma […] was measured using a high sensitivity ELISA kit (Wako Diagnostics) and plasma that was diluted 1:10 with assay buffer.

Male C57BL6 mice [5] = test: Aβ42 administration study: GTT with glucose tracers, cardiac metabolism; assay type: in vivo
Protocol: Male C57BL6 mice were obtained from the Animal Resource Centre (Perth, Wash.) at 4 weeks of age and housed with 4 mice per cage on a 12 hr light/dark cycle at a temperature of 22° C. and a constant humidity with a normal rodent diet. At 12 weeks of age, mice were grouped according to body mass and composition, determined by EchoMRI. […] An i.p. glucose tolerance test (GTT) was performed on the final treatment day following an overnight fast. Mice were administered 2 g/kg lean mass of glucose including radioactive glucose tracers, prepared as follows. 100 μl of 1 μCi/μ1 glucose analogue, [^3H]-2-deoxyglucose (2-DOG), and 500 μl of 200 μCi/mL U-^14C glucose were evaporated to dryness before redissolving the radioactive tracers in 1 mL of 50% glucose. This produced a 50% glucose solution containing 100 μCi/mL [^3H]-2-DOG and 100 μCi/mL U-^14C glucose. The tail tip of each mouse was cut off and the blood glucose concentration of a blood sample was measured using an AccuCheck II glucometer (Roche). The GTT was initiated via intraperitoneal injection of the radiolabelled glucose solution (2 g/kg body weight, 10 uCi/animal) into the overnight-fasted mice. Further blood samples were taken at 15, 30, 45, 60 and 90 minutes after the injection for the measurement of blood glucose. Blood samples (30 μl) were also taken from the tail tip at each time point and diluted in 100 μl of saline. These samples were then centrifuged and the supernatant collected. 50 μl of the supernatant was diluted in 500 μl of distilled water and then suspended in 4 mL of Ultima Gold XR scintillation fluid (Packard Bioscience). Blood radioactivity was determined at each time point by performing liquid scintillation counting on each solution using the Beckman scintillation counter (LS6000 SC). At the conclusion of the GTT, mice were killed via cervical dislocation. Blood was obtained immediately following by cardiac puncture and the heart, and other tissues were immediately removed. Hearts were washed in ice cold PBS and weighed prior to being snap frozen in liquid nitrogen. The heart (30 mg), epididymal fat pad (30 mg and quadriceps skeletal muscle (30 mg) were homogenised in 1.5 ml of distilled water. The homogenate was centrifuged at 3000 rpm for 10 min at 4° C. 400 μl of the supernatant was diluted into 1.6 mL of distilled water and then suspended in 14 mL of Ultima Gold XR scintillation fluid (Packard Bioscience). The radioactivity of each sample (from both [^3H]-2-DOG6P and [^3H]-2-DOG) was determined by liquid scintillation counting using the Beckman scintillation counter (LS6000 SC).
The ^3H radioactivity was used to measure glucose uptake into each tissue.
To determine the incorporation of U-^14C glucose into triglyceride and the total triglyceride content in the heart, an extraction of triglyceride was carried out using a chloroform/methanol mixture. Samples of heart (30 mg) were hand-homogenised in 2 mL of chloroform/methanol (2:1) and the homogeniser rinsed in a further 2 mL of chloroform/methanol (2:1), and the washings being added to the original extract in 10 mL tubes. The tubes were tightly capped and mixed on a rotator overnight to maximise extraction of the triglycerides. […] The amount of U-^14C glucose clearance into the lipid fraction was measured by suspending 100 μl of the triglyceride solution in 5 mL of Ultima Gold XR scintillation fluid (Packard Bioscience), followed by scintillation counting using the Beckman scintillation counter (LS6000 SC).

Male C57BL6 mice [6] = test: Aβ42 administration study: cardiac function by echocardiography; assay type: in vivo
Protocol: After 4 weeks of peptide administration, cardiac function was assessed by echocardiography as follows. Mice were anaesthetised with inhalation of 1.5% isoflurane anaesthesia and echocardiography was performed using the Phillips HD15 diagnostic ultrasound system with a 15 MHz linear-array transducer by an experienced veterinarian. The velocity of blood flow through the mitral valve was analysed using Doppler mode imaging. […] Doppler imaging was also utilised to measure the velocity of blood flow through the aortic valve. The measurements were then used to calculate the ejection time, peak aortic flow and heart rate. M-mode imaging of the left ventricle was used to measure the thickness of the inter-ventricular septum (IVS), left ventricular internal diameter (LVID) and left ventricular posterior wall (LVPW) in both diastole (d) and end-systole (s) as well as systolic measures such as ejection fraction and fractional shortening. An estimation of LV mass was calculated from the m-mode imaging by using the formula (1.05[LVIDd+LVPWd+IVSd]^3−[LVIDd]^3) by Troy et al. (1972). Mice were humanely killed by cervical dislocation 1 week later. Blood was obtained immediately following by cardiac puncture and the heart, and other tissues were immediately removed. Hearts were washed in ice cold PBS and weighed prior to being snap frozen in liquid nitrogen.

Male C57BL6 mice [7] = test: Aβ42 administration study: heart gene expression and western blotting (NLRP3 inflammasome, PKD); assay type: in vivo; settings: chronic administration
Protocol: Total mRNA from the tissues was extracted by homogenizing ˜20-30 milligrams of tissue in 1 ml of Trizol followed by incubation at room temperature (RT) for 5 min. 200 μL of chloroform was added to the homogenate, shaken for 15 seconds and incubated for 1 min at RT before centrifuging at 12,000 g for 10 min at 4° C. for extracting the upper aqueous phase. An equal volume (350 μl for cell lysate/450 μL for tissue) of 70% ethanol was added to cell/tissue samples and they were further purified with RNeasy spin columns (the RNeasy®min i Kit, Qiagen). Complementary DNA (cDNA) was synthesised using the SuperScript™ III transcription system (Invitrogen). cDNA was quantified by OliGreen assay (Quant-iT™ OliGreen® ssDNA Assay Kit; Invitrogen). All primers were designed in-house using the Beacon Primer Designer program software and synthesised by Gene Works (Adelaide, Australia). Primer sequence efficiency was tested over a wide concentration range. Gene expression levels were quantified using the FastStart Universal SYBR Green Master (ROX; Roche Applied-Science) on the MX3005P™ Multiplex Quantitative PCR (QPCR) system (Stratagene). Log-transformed CT values were normalised to cDNA concentration to determine relative gene expression levels.
Approximately 20 mg of ventricle tissue was homogenised in ice-cold lysis buffer (50 mM Tris pH7.5, 1 mM EDTA, 1 mM EGTA, 10% glycerol, 1% triton X-100, 50 mM NaF, 5 mM Na4P2O7, 1 mM Na3VO4, 1 mM DTT, protease inhibitor cocktail) and protein content was determined using the BCA method. […] Blocked membranes were exposed to primary antibodies towards pro-caspase-1, mature caspase 1, total PKD, PKD phosphorylated at ser744 and 748 (Cell Signalling Technology, Danvers, USA) and α-tubulin (Sigma-Aldrich, St. Louis, USA). Membranes were visualised and bands quantified by using the ChemiDoc™ XRS+ with Image Lab™ software.

## Cc1nc(C#Cc2ccnc(Cl)c2)c(C)n1-c1ccc(F)cc1 [Basimglurant]
Male C57BL6 mice [1]
  plasma Aβ42 compared with the ScrAβ42+Veh group: significantly increased
Male C57BL6 mice [1]; echocardiography after 4 weeks
  Peak E wave compared with the ScrAβ42+Veh group: reduced in the Aβ42+Veh group, but not in the Aβ42+Basimglurant groups
Male C57BL6 mice [1]; echocardiography after 4 weeks, FIG. 9C
  myocardial performance index (MPI) compared with the ScrAβ42+Veh group: increased in the Aβ42+Veh group, but not in the Aβ42+Basimglurant groups
[2]; 13 weeks HFD then 4 weeks daily 1 mg/kg oral gavage, FIG. 12A
  DT after treatment: 100 % of baseline levels
[2]; daily 1 mg/kg oral gavage, FIG. 12B
  plasma Aβ42 levels: did not have any effect

## O=C1NCCCc2c1oc1ccc(O)cc21 [CID755673]
[3]
  Aβ42-induced increase in inflammatory gene expression: prevented

## Aβ40: Lyophilised recombinant Aβ40 (Millipore), amyloid beta peptide
Male C57BL6 mice [4]
  plasma Aβ40: significantly increased

## Aβ42: Lyophilised recombinant Aβ42 (Millipore), amyloid beta peptide of 42 amino acids
Male C57BL6 mice [5]; after five weeks of peptide, vs ScrAβ42
  whole body glucose tolerance or plasma insulin throughout the GTT: no difference
Male C57BL6 mice [5]; heart, FIG. 1C
  glucose incorporation into TAG (14C-glucose labelling): greater
Male C57BL6 mice [5]; heart, FIG. 1D
  total TAG: increased
Male C57BL6 mice [5]; heart, FIG. 1E
  cardiac gene expression (inflammation, endoplasmic reticulum stress): gene expression changes indicative of cardiac stress responses
Male C57BL6 mice [5]; i.p. 1 μg/day for five weeks, FIG. 1A
  increase in plasma Aβ42 compared with administration of ScrAβ42: approximately 3 fold
Male C57BL6 mice [6]; echocardiography, vs ScrAβ42, FIG. 2D
  deceleration time: increased
Male C57BL6 mice [6]; echocardiography, vs ScrAβ42, FIG. 2E
  E normalised by isovolumetric relaxation time (IVRT): no significant difference
Male C57BL6 mice [6]; echocardiography, vs ScrAβ42, FIG. 2F
  fractional shortening: reduced
Male C57BL6 mice [6]; echocardiography, vs ScrAβ42, FIG. 2G
  ejection fraction: reduced
Male C57BL6 mice [6]; five weeks of peptide vs ScrAβ42, FIG. 2A
  gross heart weight: no effect
Male C57BL6 mice [6]; five weeks of peptide vs ScrAβ42, FIG. 2B
  internal dimensions of the left ventricle (LVIDd): no effect
Male C57BL6 mice [7]; FIG. 6A
  phosphorylation of PKD at ser744 and 748: increased
Male C57BL6 mice [7]; heart, FIG. 5A
  expression of genes associated with priming of the NLRP3 inflammasome (Nlrp3, Ifna, Il18): increased
Male C57BL6 mice [7]; western blot, FIG. 5B
  mature caspase 1: increased
  pro-caspase 1: increased
Male C57BL6 mice [1]
  plasma Aβ42 compared with the ScrAβ42+Veh group: elevated
Male C57BL6 mice [1]; echocardiography after 4 weeks
  Peak E wave compared with the ScrAβ42+Veh group: reduced

From patent US20230028659A1, “THERAPEUTIC COMPOSITIONS AND METHODS FOR PREVENTION AND TREATMENT OF DIASTOLIC DYSFUNCTION” (AMBETEX PTY LTD, priority 2019, published 2023)
